A word on the melting point: it is the temperature, or range, at which the solid turns liquid. In turn, `Cl.N[C@@H](CCC(=O)OCCCO[N+](=O)[O-])C(=O)O` registered a melting point of 137 to 139 °C.

For `Cl.N[C@@H](CCC(=O)OC(CO[N+](=O)[O-])CO[N+](=O)[O-])C(=O)O`, the melting point is 139 °C (dec.).

`CC(C)(COC(=O)CC[C@H](N)C(=O)O)CO[N+](=O)[O-].Cl` yielded a melting point of 132 to 135 °C.

In the case of `Cl.N[C@@H](CCC(=O)OCc1ccc(CO[N+](=O)[O-])cc1)C(=O)O`, the melting point lay in the range of 135 to 138 °C.

In the case of `Cl.N[C@@H](CCC(=O)OCC#CCO[N+](=O)[O-])C(=O)O`, the melting point fell in the range of 107 to 110 °C.

With `Cl.N[C@@H](CCC(=O)N1CCCC(CO[N+](=O)[O-])C1)C(=O)O` (some centres unmarked), the melting point was 70 to 72 °C (dec.).

Take `Cl.N[C@@H](CCC(=O)OCCCC(CO[N+](=O)[O-])O[N+](=O)[O-])C(=O)O` (some centres unmarked): the melting point is 90 to 94 °C.

`Cl.N[C@@H](CCC(=O)N1CCC(CCO[N+](=O)[O-])CC1)C(=O)O` registered a melting point of 137 to 140 °C.

As for `Cl.N[C@@H](CCC(=O)NCCCO[N+](=O)[O-])C(=O)O`, the melting point was in the range of 57 to 60 °C.

Regarding `CC(C)(CNC(=O)CC[C@H](N)C(=O)O)CO[N+](=O)[O-].Cl`, the melting point lay in the range of 65 to 68 °C.

`Cl.N[C@@H](CCC(=O)O[C@H]1CO[C@H]2[C@@H]1OC[C@H]2O[N+](=O)[O-])C(=O)O` (stereo in doubt) displayed a melting point of 160 to 162 °C.

Values taken from patent publication US20070037821A1, “Nitrosated glutamic acid compounds, compositions and methods of use” (NITROMED, INC., priority 2003, published 2007).
